# Results as given in patent publication EP4385984A1, “PYRIDINE-N-OXIDES AS INHIBITORS OF NAV1.8” (Grünenthal GmbH, priority 2022, dated 2024).
# Target: T1, human NaV1.8 (Homo sapiens, UniProt Q9Y5Y9)
# T1 construct: expressed in transfected cells; host or cells: HEK
# Assay: Electrophysiology: automated whole-cell voltage-clamp (patch clamp) recordings of sodium currents, Qube384
# Format: cell-based
# Details: HEK-NaV1.8 (NM 006514.1) with b3 recombinant cell line, multi hole plates, ambient room temperature, read-out: Potency category (human NaV1.8 IC50)
# Experimental: The following NaV1.8 recombinant cell line was used for recordings: HEK-NaV1.8 (NM 006514.1) with b3 (NM_018400.3).
# Sodium currents were measured using the patch clamp technique in the whole-cell configuration using the Qube384 (Sophion A/S, Copenhagen, Denmark) automated voltage clamp platform. "Multi hole" plates were used for the cell line expressing NaV1.8 while "single hole" plates were used for the recombinant cell lines expressing the other subtypes. Appropriate filters (for minimum seal resistance and minimum current size) and series resistance compensation (for high quality sodium channel recordings) were applied. Data was collected at ambient room temperature.
# The recording […] solution contained (in mM): NaCl 145 mM, KCl 4 mM, CaCl2 2 mM, MgCh 1 mM, HEPES 10 mM, Glucose 10 mM, pH 7.4 (NaOH). The […] recording solution contained (in mM): CsF 120 mM, CsCl 20 mM, NaCl 10 mM, EGTA 10 mM, HEPES 10 mM, pH 7.2 (CsOH). Currents were recorded at 25 kHz sampling frequency and filtered at 5 kHz. Series resistance compensation was applied at 65%. Vehicle (VEH) is the control condition where cells are exposed to 0.3 % DMSO without compound. All runs include VEH controls being exposed to the same voltage protocols to assess non-compound related phenomena such as run down and then used to isolate compound dependent effects on currents.
# To check for state-dependence inhibition, the following voltage-sequence was applied every 20 seconds: From a resting membrane potential of-120 mV, the first test pulse (P1; 20 ms to -10 mV) was applied to check for channels in the Resting State followed by a brief recovery (20 ms to -120 mV), then holding the membrane voltage to V1/2 (4 seconds at voltage to obtain half the channel at Rest and half Inactivated) with a subsequent second test pulse (P2; 20 ms to -10 mV) to check for channels in the Inactivated State, followed by another brief recovery (20 ms to -120 mV) and a final third test pulse (P3; 20 ms to -10 mV) to check for recovered channels.
# To check for frequency-dependent inhibition, a 10 Hz protocol and a 20 Hz protocol were applied; namely,
# From a resting membrane potential of -120 mV, 40-pulses (10 ms to -10 mV) was applied at 10 Hz (at 100 ms between pulses) and then at 20 Hz (at 50 ms between pulses).
# Each parameter was recorded (P1, P2, P3, P40 from 10Hz and P40 from 20Hz) during a control period (lasting ~ 5 minutes) when establishing the baseline and during compound period (lasting ~ 12 minutes) when test compound (or vehicle) was applied. For each parameter, the value at the end of the compound period was normalized to the vehicle baseline; as follows Normalized Inhibition(NormCPD) = (CPD Valueend CPD period)/(VEH Valueend Control Period) [formula]
# To adjust for any variance in the Na^+ current signal during the compound period (owing to cumulative inactivation independent of compound or shifts in biophysics over time), a dedicated segment of the recording wells in each 384 plate were dedicated to having only vehicle exposure. These vehicle-only recordings were used to correct for any apparent "run-up" or "run-down" in the experiment. Normalized Inhibition(NormVEH) = (VEH Valueend CPD period)/(VEH Valueend Control Period) [formula]
# The adjusted inhibition was calculated as follows: % Inhibitioncorrected = 100 × (NormCPD −NormVEH)/(100−NormVEH) [formula]
# Percent inhibition was determined and IC50 values were calculated using a 4 parameter logistic model within XLFit Software (IDBS, Boston MA): %Inhibitioncorrected = A + ((B−A))/((1 + (((x)/(C)))^D) [formula] where A and B are the maximal and minimum inhibition respectively, C is the IC50 concentration and D is the (Hill) slope.
# T1 sequence (Q9Y5Y9 whole entry): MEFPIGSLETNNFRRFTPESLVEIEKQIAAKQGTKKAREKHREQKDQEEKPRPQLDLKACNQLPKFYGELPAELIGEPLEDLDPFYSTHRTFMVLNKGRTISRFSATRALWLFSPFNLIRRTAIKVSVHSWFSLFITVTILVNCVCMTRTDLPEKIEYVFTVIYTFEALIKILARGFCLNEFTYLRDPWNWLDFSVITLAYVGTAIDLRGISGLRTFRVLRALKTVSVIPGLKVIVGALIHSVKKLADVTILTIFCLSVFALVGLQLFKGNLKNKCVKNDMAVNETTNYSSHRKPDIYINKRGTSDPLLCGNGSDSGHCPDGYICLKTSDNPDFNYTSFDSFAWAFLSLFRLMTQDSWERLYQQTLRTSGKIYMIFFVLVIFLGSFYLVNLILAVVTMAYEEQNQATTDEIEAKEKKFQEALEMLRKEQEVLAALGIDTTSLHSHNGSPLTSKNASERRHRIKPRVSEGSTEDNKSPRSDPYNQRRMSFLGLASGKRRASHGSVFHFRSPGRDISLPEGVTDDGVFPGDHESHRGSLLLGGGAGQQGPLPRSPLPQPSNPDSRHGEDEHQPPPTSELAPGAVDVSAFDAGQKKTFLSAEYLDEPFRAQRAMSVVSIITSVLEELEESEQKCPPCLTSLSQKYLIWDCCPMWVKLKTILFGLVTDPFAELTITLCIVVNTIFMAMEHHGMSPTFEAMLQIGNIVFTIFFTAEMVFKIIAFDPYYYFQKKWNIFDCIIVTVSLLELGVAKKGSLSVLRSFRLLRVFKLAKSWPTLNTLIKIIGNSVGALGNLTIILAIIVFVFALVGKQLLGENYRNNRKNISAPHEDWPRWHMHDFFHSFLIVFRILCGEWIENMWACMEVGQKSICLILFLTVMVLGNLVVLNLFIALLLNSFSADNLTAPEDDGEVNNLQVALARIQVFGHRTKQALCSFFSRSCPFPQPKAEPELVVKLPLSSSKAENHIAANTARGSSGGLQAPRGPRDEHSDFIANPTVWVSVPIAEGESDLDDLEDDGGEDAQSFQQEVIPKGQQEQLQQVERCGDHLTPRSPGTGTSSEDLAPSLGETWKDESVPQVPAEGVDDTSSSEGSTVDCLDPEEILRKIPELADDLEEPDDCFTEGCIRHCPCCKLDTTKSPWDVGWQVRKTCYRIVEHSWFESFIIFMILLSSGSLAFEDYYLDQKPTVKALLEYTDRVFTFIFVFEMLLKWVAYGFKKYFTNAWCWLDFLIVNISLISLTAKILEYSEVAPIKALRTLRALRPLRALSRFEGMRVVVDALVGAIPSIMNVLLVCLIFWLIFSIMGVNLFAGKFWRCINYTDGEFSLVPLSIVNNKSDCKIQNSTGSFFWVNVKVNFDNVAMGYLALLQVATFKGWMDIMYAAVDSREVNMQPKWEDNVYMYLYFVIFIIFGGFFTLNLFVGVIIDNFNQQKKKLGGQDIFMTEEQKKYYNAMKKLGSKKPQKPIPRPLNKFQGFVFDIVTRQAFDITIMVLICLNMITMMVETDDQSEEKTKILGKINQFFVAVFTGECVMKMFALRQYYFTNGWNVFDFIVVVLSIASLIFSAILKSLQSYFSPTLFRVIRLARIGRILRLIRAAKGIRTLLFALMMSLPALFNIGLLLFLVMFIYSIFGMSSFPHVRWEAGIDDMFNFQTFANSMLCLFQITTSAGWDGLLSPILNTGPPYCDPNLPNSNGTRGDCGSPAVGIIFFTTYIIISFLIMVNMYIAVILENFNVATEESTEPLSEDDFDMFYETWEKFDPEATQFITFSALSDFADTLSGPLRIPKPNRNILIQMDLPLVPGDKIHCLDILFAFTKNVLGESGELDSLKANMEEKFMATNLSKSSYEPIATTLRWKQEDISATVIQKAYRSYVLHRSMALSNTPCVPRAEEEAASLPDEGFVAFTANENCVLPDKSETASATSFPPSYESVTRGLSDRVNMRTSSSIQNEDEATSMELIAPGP
row,IC50,Structure (SMILES)
1,100 to 1000 nM,"O=C(O)c1cc(NC(=O)c2c(C(F)(F)F)c(C3CC3)nn2CC2CCC(F)(F)CC2)ccn1 [Example 9, 4-(3-cyclopropyl-1-((4,4-difluorocyclohexyl)methyl)-4-(trifluoromethyl)-1H-pyrazole-5-carboxamido)picolinic acid]"
2,100 to 1000 nM,"CC(F)(F)c1nn(CC2CC(F)(F)C2)c(C(=O)Nc2ccc(C(=O)O)nc2)c1C(F)(F)F [Example 8, 5-(1-((3,3-difluorocyclobutyl)methyl)-3-(1,1-difluoroethyl)-4-(trifluoromethyl)-1H-pyrazole-5-carboxamido)picolinic acid]"
3,≤ 100 nM,"Cc1c(C(C)(F)F)nn(CC2(C)CCC(F)(F)C2)c1C(=O)Nc1cc[n+]([O-])c(C(N)=O)c1 (single isomer, unassigned) [Example 5a, 2-carbamoyl-4-(1-((3,3-difluoro-1-methylcyclopentyl)methyl)-3-(1,1-difluoroethyl)-4-methyl-1H-pyrazole-5-carboxamido)pyridine 1-oxide]"
4,≤ 100 nM,"Cc1c(C(C)(F)F)nn(CC2(C)CC(F)(F)C2)c1C(=O)Nc1cc[n+]([O-])c(C(N)=O)c1 [Example 4, 2-carbamoyl-4-(1-((3,3-difluoro-1-methylcyclobutyl)methyl)-3-(1,1-difluoroethyl)-4-methyl-1H-pyrazole-5-carboxamido)pyridine 1-oxide]"
5,100 to 1000 nM,"Cc1c(C(C)(F)F)nn(C[C@@H]2CCC(F)(F)C2)c1C(=O)Nc1cc[n+]([O-])c(C(N)=O)c1 [Example 1a, (R)-2-Carbamoyl-4-(1-((3,3-difluorocyclopentyl)methyl)-3-(1,1-difluoroethyl)-4-methyl-1H-pyrazole-5-carboxamido)pyridine 1-oxide]"
6,1000 to 10000 nM,"CC(F)(F)c1nn(CC2CC(F)(F)C2)c(C(=O)Nc2ccnc(C(=O)O)c2)c1C(F)(F)F [Example 7, 4-(1-((3,3-difluorocyclobutyl)methyl)-3-(1,1-difluoroethyl)-4-(trifluoromethyl)-1H-pyrazole-5-carboxamido)picolinic acid]"
7,100 to 1000 nM,"Cc1c(C(C)(F)F)nn(CC2CC(F)(F)C2)c1C(=O)Nc1cc[n+]([O-])c(C(N)=O)c1 [Example 3, 2-carbamoyl-4-(1-((3,3-difluorocyclobutyl)methyl)-3-(1,1-difluoroethyl)-4-methyl-1H-pyrazole-5-carboxamido)pyridine 1-oxide]"
8,100 to 1000 nM,"Cc1c(C(C)(F)F)nn(C[C@H]2CCC(F)(F)C2)c1C(=O)Nc1cc[n+]([O-])c(C(N)=O)c1 [Example 1b, (S)-2-Carbamoyl-4-(1-((3,3-difluorocyclopentyl)methyl)-3-(1,1-difluoroethyl)-4-methyl-1H-pyrazole-5-carboxamido)pyridine 1-oxide]"

row,Structure (SMILES),IC50
1,"CP(C)(=O)c1cc(NC(=O)c2c(C(F)(F)F)cnn2CC2CCCCC2)ccn1 [Example 10, 1-(cyclohexylmethyl)-N-(2-(dimethylphosphoryl)pyridin-4-yl)-4-(trifluoromethyl)-1H-pyrazole-5-carboxamide]",100 to 1000 nM
